Each block holds one compound with its values, some of them ahead of it.
Key:
Assay type in all cases: cell-based
[1] = test system: canonical Wnt signaling; test: ST-Luc (SuperTOPFlash) Luciferase assay in HEK293 cells, 30% Wnt3a-CM; details: Homo sapiens, HEK293; 10 μM compound, 30% Wnt3a-CM, 24 h; relative to DMSO control
Method: Inhibition of Wnt signaling by compound No. 1 was quantified in vitro using a Luciferase assay in HEK293 cells transiently transfected with SuperTOPFlash plasmid (ST-Luc) (Veeman M T et al., Curr. Biol. 13: 680-685, 2003) at concentrations from 0.1-10 μM. HEK293 cells were purchased from ATCC (American Type Culture Collection) and maintained according to suppliers recommendations.
Transfection was performed using 80000 HEK293 cells seeded in 48-well plates coated with poly-L lysine. After 24 hours, 0.25 μg total plasmid DNA (0.23 μg SuperTOPFlash+0.02 μg pRL-TK (Renilla)—Promega) and 0.75 μl FuGENE6 (Roche) was combined in a total volume in 25 μl Opti-MEM® (Invitrogen) as described by the manufacturer (Roche). The transfection mixture was added to the plated cells and media were changed after 24 hours.
The Luciferase assay was performed by incubating transfected cells for 24 hours with various concentrations of compound No. 1 in 30% Wnt3a-CM (Wnt3a containing conditioned medium from L Wnt3a cells was harvested as described by ATCC). All treated reporter cells were finally lysed and the firefly luciferase and Renilla activities were measured on a 20/20n Luminometer (Turner BioSystems) as described in the Dual-Glo™ Luciferase Assay System Technical Manual (Promega).
HEK293 cells were transfected, grown and assayed as described in Example 22. 24 hours after seeding, the cells were incubated for an additional 24 hours with 10 μM concentrations of compounds in 30% Wnt3a-CM.
The percent activities shown in Table 3 are calculated relative to DMSO as a control. Some values shown are averages of multiple measurements. Compound XAV939 (Novartis; Huang et al., Nature (2009), 461, pp. 614-20) which is used as a positive control, has an activity of 7%.

[2] = test system: SW480 colon carcinoma cells; test: MTS cell proliferation assay, Table 5; details: Homo sapiens; SW480, 10 μM, 72 h; relative to DMSO control; read-out: Cell proliferation (%) for test compounds
Method: For the experiment giving the results shown in Table 5, cells (3000 per well) were seeded on 96 well plates (eight replicates per treatment). After 24 hours, and daily thereafter, cell culture medium (including 10% FBS) was mixed with 10 μM compounds or with 0.1% DMSO vehicle and then added to the wells. Sixteen wells of seeded control cells, defining incubation time zero (t0=24 hour after cell seeding), were incubated with 20 μl substrate in 100 μl phenol free D-MEM (Invitrogen) for 2 hours, as described in the CellTiter 96® AQueous Non-Radioactive Cell Proliferation Assay protocol (Promega). The A490 was recorded. The treatment samples were likewise measured after 72 hours.
The quantity of reduced MTS product (as measured by the absorbance at 490 nm) is directly proportional to the number of living cells in the culture and thus allows a direct comparison of cell proliferation in each case. DMSO was used as a control. The following formula was used to determine single well relative A490 sample values: ((Sample A490−Average A490t0)*100)/(Average A490t720.1% DMSO control−Average A490t0)
The proliferation of SW480 cells (in percent) is the A492 value relative to that of the DMSO control.

[3] = test system: canonical Wnt signaling; test: IC50 in STF/REN HEK293 cells, 50% Wnt3a-CM; details: Homo sapiens; STF/REN HEK293, 50% Wnt3a-CM, 24 h
Method: IC50 values were calculated using STF/REN HEK293 cells prepared essentially according to Example 22. Briefly, HEK293 cells (80,000 cells per well) were seeded in 48-well plates coated with poly-L lysine. 24 hours after seeding, the cells were incubated for an additional 24 hours with various compound concentrations in 50% Wnt3a-CM. After compound exposure, the cells were lysed and the firefly luciferase and Renilla activities were measured on a 20/20n Luminometer (Turner BioSystems) as described in the Dual-Glo™ Luciferase Assay System Technical Manual (Promega).
XLfit (idbs) was used to determine the IC50 and GI50 values in inhibition experiments. The data were fit to the following formulae:
IC50: Langmuir Binding Isotherm: fit=((A+(B*x))+(((C−B)*(1−exp((−1*D)*x)))/D)) res=(y−fit)

SMILES: Cc1ccc(-c2nnc(CSc3nnc(-c4cnc(N)nc4)n3-c3ccccc3Cl)o2)cc1 [compound 132, 5-(5-((5-p-tolyl-1,3,4-oxadiazol-2-yl)methylthio)-4-(2-chlorophenyl)-4H-1,2,4-triazol-3-yl)pyrimidin-2-amine]
activity at 10 µM [1]: 32%

SMILES: CC(Sc1nnc(-c2ccccc2)n1-c1ccc(F)cc1F)c1nc(-c2ccncc2)no1 (centres unmarked) [Compound 80]
activity at 10 µM [1]: 32%

SMILES: COc1ccc(-n2c(SCCc3nc(-c4ccc(C)cc4)no3)nnc2-c2ccncc2)cc1 [Compound 2]
activity at 10 µM [1]: 31.8%

SMILES: Sc1nnc(-c2ccncc2)n1-c1ccc(Cl)cc1 [Compound 17]
activity at 10 µM [1]: 76.8%

SMILES: COc1ccc(-n2c(SCCNC(C)=O)nnc2-c2ccncc2)cc1 [Compound 33]
activity at 10 µM [1]: 79.6%

SMILES: COc1cc(OC)cc(-c2nnc(SCc3nnc(-c4ccc(C)cc4)o3)n2-c2ccccc2Cl)c1 [Compound 107]
activity at 10 µM [1]: 4.5%
activity at 10 µM [2]: 47%

SMILES: Cc1ccccc1-n1c(SCC(=O)Nc2ncccn2)nnc1-c1ccncc1 [Compound 82]
activity at 10 µM [1]: 83%

SMILES: Cc1ccc(-c2nnc(CCc3nnc(-c4ccncc4)n3-c3ccccc3Cl)o2)cc1 [compound 101]
activity at 10 µM [1]: 23%
activity at 10 µM [2]: 47%

IC50 [3]: 10 µM
SMILES: Fc1ccc(-n2c(SCc3nc(-c4ccc(Cl)cc4)no3)nnc2-c2ccncc2)cc1 [Compound 12]
activity at 10 µM [1]: 38.8%

SMILES: Cc1ccc(-c2noc(CSc3nnc(-c4cccc(O)c4)n3-c3ccccc3C)n2)cc1 [Compound 45]
activity at 10 µM [1]: 78.1%

IC50 [3]: 0.95 µM
SMILES: Cc1ccccc1-n1c(SCc2nc(-c3cccc(O)c3)no2)nnc1-c1ccncc1 [Compound 47]
activity at 10 µM [1]: 8.7%

SMILES: Cc1ccc(-c2nnc(Sc3nnc(-c4ccncc4)n3-c3ccccc3Cl)s2)cc1 [Compound 63]
activity at 10 µM [1]: 99%

IC50 [3]: 1.75 µM
SMILES: Cc1ccc(-c2noc(CS(=O)(=O)c3nnc(-c4ccncc4)n3-c3ccccc3Cl)n2)cc1 [compound 66]
activity at 10 µM [1]: 25.6%

SMILES: COc1ccc(-n2c(SCc3cn4ccccc4n3)nnc2-c2ccncc2)cc1 [Compound 27]
activity at 10 µM [1]: 80.3%

SMILES: Cc1ccc(-n2c(SC(C)c3nc(-c4ccncc4)no3)nnc2-c2ccncc2)cc1C (centres unmarked) [Compound 79]
activity at 10 µM [1]: 16%
activity at 10 µM [2]: 70%

SMILES: COc1ccc(-n2c(SC)nnc2-c2ccncc2)cc1 [Compound 14]
activity at 10 µM [1]: 63.5%

IC50 [3]: < 0.1 µM
SMILES: NCCCOCCCOc1cccc(-c2noc(CSc3nnc(-c4ccncc4)n3-c3ccccc3Cl)n2)c1 [compound 67]
activity at 10 µM [1]: 12.7%

SMILES: Cc1ccc(-c2noc(CSc3nnc(-c4ccncc4)n3-c3ccc(Cl)cc3)n2)cc1 [Compound 3]
activity at 10 µM [1]: 32.5%

SMILES: N#Cc1ccc(-c2nnc(CSc3nnc(-c4ccncc4)n3-c3ccccc3Cl)o2)cc1 [Compound 69]
activity at 10 µM [1]: 26%

SMILES: Cc1ccc(NC(=O)CSc2nnc(-c3ccncc3)n2-c2ccc(C)cc2)cc1 [Compound 92]
activity at 10 µM [1]: 84%

SMILES: Cc1ccc2nc(CSc3nnc(-c4ccncc4)n3-c3ccccc3C)cc(=O)n2c1 [Compound 85]
activity at 10 µM [1]: 43%

SMILES: CC1CCCCC1n1c(SCc2nnc(-c3ccccc3)o2)nnc1-c1cccnc1 (centres unmarked) [Compound 87]
activity at 10 µM [1]: 52%

IC50 [3]: 10 µM
SMILES: Fc1ccc(-n2c(SCc3nc(-c4cccc(Cl)c4)no3)nnc2-c2ccncc2)cc1 [Compound 21]
activity at 10 µM [1]: 90.1%

SMILES: COc1ccc(-n2c(S)nnc2-c2ccncc2)cc1 [Compound 15]
activity at 10 µM [1]: 69.1%

SMILES: COc1ccc(-n2c(OCc3nc(-c4ccc(C)cc4)no3)nnc2-c2ccncc2)cc1 [Compound 4]
activity at 10 µM [1]: 98.4%

SMILES: Cc1ccc(-c2nnc(CSc3nnc(-c4cc(O)cc(O)c4)n3-c3ccccc3Cl)o2)cc1 [compound 106, (5-((5-p-tolyl-1,3,4-oxadiazol-2-yl)methylthio)-4-(2-chlorophenyl)-4H-1,2,4-triazol-3-yl)benzene-1,3-diol]
activity at 10 µM [1]: 14.5%
activity at 10 µM [2]: 63%

SMILES: Cc1ccccc1-n1c(SCc2nc(-c3ccccc3Cl)no2)nnc1-c1ccncc1 [Compound 56]
activity at 10 µM [1]: 55.1%

SMILES: Cc1ccc(-c2nnc(CSc3nnc(-c4ccc(Cl)cc4)n3-c3ccccc3Cl)o2)cc1 [compound 111, 3-((5-p-tolyl-1,3,4-oxadiazol-2-yl)methylthio)-4-(2-chlorophenyl)-5-(4-chlorophenyl)-4H-1,2,4-triazole]
activity at 10 µM [1]: 0.7%
activity at 10 µM [2]: 44%

IC50 [3]: 0.371 µM
SMILES: Cc1ccc(-c2nnc(CSc3nnc(-c4ccncc4)n3-c3ccccc3Cl)o2)s1 [compound 74]
activity at 10 µM [1]: 13%

SMILES: Cc1ccc(-c2nnc(S[C@H](C)c3nnc(-c4ccncc4)n3-c3ccccc3Cl)o2)cc1 [100b]
activity at 10 µM [1]: 5%
activity at 10 µM [2]: 66%

SMILES: Cc1ccc(-c2noc(CSc3nnc(-c4cccnc4)n3-c3ccccc3C)n2)cc1 [Compound 77]
activity at 10 µM [1]: 51%

SMILES: Cc1cc2nc(CSc3nnc(-c4ccncc4)n3-c3ccccc3Cl)cc(=O)n2cc1C [compound 103]
activity at 10 µM [1]: 20%
activity at 10 µM [2]: 67%

SMILES: Cc1ccccc1-n1c(SCC(=O)NCc2cccs2)nnc1-c1ccncc1 [Compound 88]
activity at 10 µM [1]: 99%

SMILES: CCOc1ccc(-n2c(SCc3nnc(C)o3)nnc2-c2ccncc2)cc1 [Compound 30]
activity at 10 µM [1]: 78%

SMILES: COc1ccc(-n2c(CCN(C)C)nnc2-c2ccncc2)cc1 [Compound 6]
activity at 10 µM [1]: 55.7%

SMILES: CCOc1ccc(-c2nnc(SCc3nnc(-c4ccc(C)cc4)o3)n2-c2ccccc2Cl)cc1 [compound 109, 3-((5-p-tolyl-1,3,4-oxadiazol-2-yl)methylthio)-4-(2-chlorophenyl)-5-(4-ethoxyphenyl)-4H-1,2,4-triazole]
activity at 10 µM [1]: 0.6%
activity at 10 µM [2]: 33%

IC50 [3]: 7.1 µM
SMILES: COc1ccc(-n2c(SCc3nc(-c4cccs4)no3)nnc2-c2ccncc2)cc1 [Compound 13]
activity at 10 µM [1]: 34.5%

SMILES: Cc1ccc(-c2nnc(CSc3nnc(-c4ccncc4)n3-c3ccccc3Cl)o2)cc1Br [compound 73]
activity at 10 µM [1]: 29%

SMILES: Cc1ccc(-n2c(SCc3nc(C(C)(C)C)no3)nnc2-c2ccncc2)cc1 [Compound 81]
activity at 10 µM [1]: 89%

SMILES: COc1ccc(-n2c(O)nnc2-c2ccncc2)cc1 [Compound 16]
activity at 10 µM [1]: 71.8%

SMILES: Cc1ccccc1-n1c(SCc2nc(-c3cccc(C(F)(F)F)c3)no2)ccc1-c1ccncc1 [Compound 57]
activity at 10 µM [1]: 51.8%

IC50 [3]: 10 µM
SMILES: CCOc1ccc(-n2c(SCc3nc(-c4cccc(Cl)c4)no3)nnc2-c2ccncc2)cc1 [Compound 25]
activity at 10 µM [1]: 59%

SMILES: Cc1ccc(-c2nnc(CSc3nnc(-c4ccc(Cl)c(Cl)c4)n3-c3ccccc3Cl)o2)cc1 [compound 131, 3-((5-p-tolyl-1,3,4-oxadiazol-2-yl)methylthio)-4-(2-chlorophenyl)-5-(3,4-dichlorophenyl)-4H-1,2,4-triazole]
activity at 10 µM [1]: 4%
activity at 10 µM [2]: 53%

SMILES: O=C(CSc1nnc(-c2ccncc2)n1-c1ccccc1)Nc1ccccn1 [Compound 97]
activity at 10 µM [1]: 80%

SMILES: Cc1ccccc1-c1nnc(CSc2nnc(-c3ccncc3)n2-c2ccccc2Cl)o1 [compound 71]
activity at 10 µM [1]: 31%

SMILES: Cc1ccccc1-n1c(SCC(=O)Nc2ccc3c(c2)CCC3)nnc1-c1ccncc1 [Compound 89]
activity at 10 µM [1]: 94%

SMILES: Cc1ccc(-c2nc(CSc3nnc(-c4ccncc4)n3-c3ccccc3Cl)sc2C)cc1 [Compound 62]
activity at 10 µM [1]: 58%

SMILES: Cc1ccc(-n2c(SCC(=O)NC3CCCC3)nnc2-c2ccncc2)cc1 [Compound 93]
activity at 10 µM [1]: 91%

Reference: patent US8883827B2, “Azole derivatives as WTN pathway inhibitors” (Oslo University Hospital HF, priority 2009, dated 2014)
